Test results published in patent US20210369853A1, “TARGETED PROTEASE DEGRADATION PLATFORM” (EUBULUS BIOTHERAPEUTICS INC., priority 2018, published 2021).
pEC50: −log10 of the molar value. Like-named read-outs stand apart in the source and are kept apart here.

Experiments:
Format in all cases: cell-based
BRD4 = target: T1, BRD4 (Homo sapiens, UniProt O60885); assay: Western blot, protein degradation (DC50)
T1 construct: endogenous in cells
Procedure, shortened: (§1)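 Cells treated with compound, lysed in RIPA and resolved by SDS-PAGE (4%-12%); PVDF blots probed with primary antibody overnight at 4° C, then secondary antibody, and developed with ECL. Band intensities quantified by densitometry to give degradation.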

[1] = system: Human Glioma Cells U-87 MG; assay: Cell proliferation experiment (Alarm blue, 72 h, EC50); settings: Homo sapiens; U-87MG cells
Procedure, shortened: (§2)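 Single-cell suspensions from log-phase cultures are plated, compound in complete medium is added at 5-fold dilution steps (two replicates each), and cells grow for 72 h. Viability is then measured as Alamar blue fluorescence, giving EC50 by sigmoidal fitting.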

[2] = system: Human Monocytic Leukemia MV4-11; assay: as above; settings: Homo sapiens
Procedure, shortened: as §2

Human Colon Cancer HT-29 = assay: as above; settings: Homo sapiens; HT-29 cells
Procedure, shortened: as §2

[3] = system: Human Small Cell Lung Cancer NCI-H82; assay: as above; settings: Homo sapiens, NCI-H82; NCIH82 cells
Procedure, shortened: as §2

Daudi [4] = assay: Cell proliferation experiment (EC50), Daudi; settings: Homo sapiens; Daudi cells
PLK1 = target: T2, PLK1 (Homo sapiens, UniProt P53350); assay: Western blot, protein degradation (DC50)
T2 construct: endogenous in cells
Procedure, shortened: as §1

[5] = system: Human Breast Cancer MDA-MB-231; assay: Cell proliferation experiment (Alarm blue, 72 h, EC50); settings: Homo sapiens; MDA-MB-231 cells
Procedure, shortened: as §2

[6] = system: Human Monocytic Leukemia THP-1; assay: as above; settings: THP-1 cells
Procedure, shortened: as §2

[7] = system: Human Acute Lymphoblastic Leukemia Cells MOLT-4; assay: as above; settings: MOL4-4 cells
Procedure, shortened: as §2

[8] = system: Human Colon Cancer HCT-116; assay: as above; settings: Homo sapiens, HCT-116; HCT116 cells
Procedure, shortened: as §2

[9] = system: Human cervical adenocarcinoma cells Hela; assay: as above; settings: Homo sapiens
Procedure, shortened: as §2

[10] = system: Human Acute Myelomonocytic Leukemia HL-60; assay: as above; settings: HL-60 cells
Procedure, shortened: as §2

HUVEC [11] = assay: Cell proliferation experiment (EC50), HUVEC; settings: Homo sapiens
PBMC [12] = assay: Cell proliferation experiment (EC50), PBMC
HUVEC [13] = assay: Cell proliferation experiment (EC50), HUVEC; settings: Homo sapiens; remark: listed apart in the source
PBMC [14] = assay: Cell proliferation experiment (EC50), PBMC; remark: listed apart in the source
Daudi [15] = assay: Cell proliferation experiment (EC50), Daudi; settings: Homo sapiens; Daudi cells; remark: listed apart in the source
[16] = 6 h, western blot, read-out: PLK1 DC50 (6 h)
[17] = 6 h, western blot, read-out: BRD4 DC50 (6 h)

T2 sequence (P53350 whole entry): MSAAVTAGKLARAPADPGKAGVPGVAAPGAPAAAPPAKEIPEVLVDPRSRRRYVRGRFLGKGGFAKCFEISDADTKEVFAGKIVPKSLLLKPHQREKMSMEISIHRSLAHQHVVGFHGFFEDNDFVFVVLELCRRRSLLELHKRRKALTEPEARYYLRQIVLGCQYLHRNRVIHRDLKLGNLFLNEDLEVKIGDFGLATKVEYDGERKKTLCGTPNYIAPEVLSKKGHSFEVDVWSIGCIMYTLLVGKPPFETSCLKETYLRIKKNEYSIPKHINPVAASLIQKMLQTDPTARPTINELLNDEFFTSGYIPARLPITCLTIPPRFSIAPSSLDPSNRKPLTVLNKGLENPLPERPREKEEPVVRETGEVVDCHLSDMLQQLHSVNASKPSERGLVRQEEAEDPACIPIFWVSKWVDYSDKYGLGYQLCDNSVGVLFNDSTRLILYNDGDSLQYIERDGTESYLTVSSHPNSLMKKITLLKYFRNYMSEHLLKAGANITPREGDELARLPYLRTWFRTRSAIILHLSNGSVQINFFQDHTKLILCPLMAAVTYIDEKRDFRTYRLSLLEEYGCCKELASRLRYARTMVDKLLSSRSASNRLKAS

CC[C@@H]1C(=O)N(C)c2cnc(Nc3ccc(C(=O)NCCOCCOCCOCCNCC#Cc4cccc5c4CN(C4CCC(=O)NC4=O)C5=O)cc3OC)nc2N1C1CCCC1 (stereo partly drawn) [UB-180846]
DC50 (BRD4; 6 h, read-out: BRD4 DC50 (6 h)): 10 to 100 nM | pEC50 [1]: 6.00 to 7.00 | pEC50 ([2]; MV4-11, MV4;11 cells): > 8.00 | pEC50 (Human Colon Cancer HT-29): 6.00 to 7.00 | pEC50 [3]: 6.00 to 7.00 | pEC50 (Daudi [4]): 6.00 to 7.00

CC[C@@H]1C(=O)N(C)c2cnc(Nc3ccc(C(=O)NCc4cn(CCNCCOCC(=O)Nc5cccc6c5CN(C5CCC(=O)NC5=O)C6=O)nn4)cc3OC)nc2N1Cc1ccc(Cl)s1 (stereo partly drawn) [UB-180720]
DC50 (PLK1; 24 h, read-out: PLK1 DC50 (nM) (24 h)): < 10 nM | DC50 (BRD4; 24 h, read-out: BRD4 DC50 (nM) (24 h)): < 10 nM | pEC50 [1]: 6.00 to 7.00 | pEC50 [5]: 6.00 to 7.00 | pEC50 [6]: 6.00 to 7.00 | pEC50 [7]: 6.00 to 7.00 | pEC50 ([2]; MV4;11 cells): > 8.00 | pEC50 [8]: 6.00 to 7.00 | pEC50 (Human Colon Cancer HT-29): 6.00 to 7.00 | pEC50 [9]: 6.00 to 7.00 | pEC50 [10]: 6.00 to 7.00 | pEC50 [3]: 6.00 to 7.00

CC[C@@H]1C(=O)N(C)c2cnc(Nc3ccc(C(=O)NCCCC[C@@H](N)C(=O)Nc4cccc5c4CN(C4CCC(=O)NC4=O)C5=O)cc3OC)nc2N1C1CCCC1 (stereo partly drawn) [UB-180855]
pEC50 [1]: 6.00 to 7.00 | pEC50 ([2]; MV4-11, MV4;11 cells): 6.00 to 7.00 | pEC50 (Human Colon Cancer HT-29): 6.00 to 7.00 | pEC50 [3]: 6.00 to 7.00 | pEC50 (Daudi [4]): 6.00 to 7.00

CC[C@@H]1C(=O)N(C)c2cnc(Nc3ccc(C(=O)NCCOCCOCCOCCNCCCc4cccc5c4CN(C4CCC(=O)NC4=O)C5=O)cc3OC)nc2N1C1CCCC1 (stereo partly drawn) [UB-180847]
pEC50 [1]: 6.00 to 7.00 | pEC50 ([2]; MV4-11, MV4;11 cells): 6.00 to 7.00 | pEC50 (Human Colon Cancer HT-29): 6.00 to 7.00 | pEC50 [3]: 6.00 to 7.00 | pEC50 (Daudi [4]): 6.00 to 7.00

CC[C@@H]1C(=O)N(C)c2cnc(Nc3ccc(C(=O)NCCOCCOCCOCCNCCC(=O)Nc4cccc5c4CN(C4CCC(=O)NC4=O)C5=O)cc3OC)nc2N1C1CCCC1 (stereo partly drawn) [UB-180633]
DC50 (PLK1; 6 h, read-out: PLK1 DC50 (6 h)): 100 to 1000 nM | DC50 (PLK1; 24 h, read-out: PLK1 DC50 (24 h)): 10 to 100 nM | DC50 (BRD4; 6 h, read-out: BRD4 DC50 (6 h)): < 10 nM | DC50 (BRD4; 24 h, read-out: BRD4 DC50 (24 h)): < 10 nM | pEC50 (HUVEC [11]): < 6.00 | pEC50 (PBMC [12]): < 6.00 | pEC50 [1]: 6.00 to 7.00 | pEC50 [5]: 6.00 to 7.00 | pEC50 [6]: 6.00 to 7.00 | pEC50 ([2]; MV4;11 cells): 7.00 to 8.00 | pEC50 [8]: < 6.00 | pEC50 (Human Colon Cancer HT-29): 6.00 to 7.00 | pEC50 [9]: 6.00 to 7.00 | pEC50 [10]: 6.00 to 7.00 | pEC50 [3]: < 6.00

CC[C@@H]1C(=O)N(C)c2cnc(Nc3ccc(C(=O)NCc4cn(CCNCCC(=O)Nc5cccc6c5CN(C5CCC(=O)NC5=O)C6=O)nn4)cc3OC)nc2N1C1CCCC1 (stereo partly drawn) [UB-180680]
DC50 (PLK1; [16]): < 10 nM | DC50 (PLK1; 24 h, western blot, read-out: PLK1 DC50 (24 h)): 10 to 100 nM | DC50 (BRD4; [17]): < 10 nM | DC50 (BRD4; 24 h, western blot, read-out: BRD4 DC50 (24 h)): < 10 nM | pEC50 (HUVEC [13]): < 6.00 | pEC50 (PBMC [14]): < 6.00 | pEC50 [1]: 6.00 to 7.00 | pEC50 [5]: 6.00 to 7.00 | pEC50 [7]: 6.00 to 7.00 | pEC50 ([2]; MV4;11 cells): 7.00 to 8.00 | pEC50 (Human Colon Cancer HT-29): 6.00 to 7.00 | pEC50 [10]: 6.00 to 7.00 | pEC50 [3]: 6.00 to 7.00 | pEC50 (Daudi [15]): 6.00 to 7.00

CC[C@@H]1C(=O)N(C)C2CNC(Nc3ccc(C(=O)NCCCNCCCC(=O)Nc4cccc5c4CN(C4CCC(=O)NC4=O)C5=O)cc3OC)NC2N1Cc1ccc(Cl)s1 (stereo partly drawn) [UB-180678]
DC50 (PLK1; [16]): 100 to 1000 nM | DC50 (BRD4; [17]): < 10 nM | pEC50 (HUVEC [13]): 6.00 to 7.00 | pEC50 (PBMC [14]): 6.00 to 7.00 | pEC50 [1]: 6.00 to 7.00 | pEC50 [5]: 6.00 to 7.00 | pEC50 [7]: 6.00 to 7.00 | pEC50 ([2]; MV4;11 cells): 7.00 to 8.00 | pEC50 (Human Colon Cancer HT-29): 6.00 to 7.00 | pEC50 [10]: 6.00 to 7.00 | pEC50 [3]: 6.00 to 7.00

CC[C@@H]1C(=O)N(C)c2cnc(Nc3ccc(C(=O)NCCOCCNCCCCCCC(=O)Nc4cccc5c4CN(C4CCC(=O)NC4=O)C5=O)cc3OC)nc2N1Cc1ccc(Cl)s1 (stereo partly drawn) [UB-180675]
DC50 (PLK1; [16]): < 10 nM | DC50 (BRD4; [17]): < 10 nM | pEC50 (HUVEC [13]): < 6.00 | pEC50 (PBMC [14]): < 6.00 | pEC50 ([2]; MV4;11 cells): 7.00 to 8.00

CC[C@@H]1C(=O)N(C)c2cnc(Nc3ccc(C(=O)NCCC[C@@H](N)C(=O)Nc4cccc5c4CN(C4CCC(=O)NC4=O)C5=O)cc3OC)nc2N1C1CCCC1 (stereo partly drawn) [UB-180856]
pEC50 [1]: 6.00 to 7.00 | pEC50 ([2]; MV4-11, MV4;11 cells): 6.00 to 7.00 | pEC50 (Human Colon Cancer HT-29): 6.00 to 7.00 | pEC50 [3]: 6.00 to 7.00 | pEC50 (Daudi [4]): 6.00 to 7.00

CC[C@@H]1C(=O)N(C)c2cnc(Nc3ccc(C(=O)NCCOCCOCCNCC#Cc4cccc5c4CN(C4CCC(=O)NC4=O)C5=O)cc3OC)nc2N1C1CCCC1 (stereo partly drawn) [UB-180845]
DC50 (BRD4; 6 h, read-out: BRD4 DC50 (6 h)): < 10 nM | pEC50 [1]: 6.00 to 7.00 | pEC50 ([2]; MV4-11, MV4;11 cells): > 8.00 | pEC50 (Human Colon Cancer HT-29): 6.00 to 7.00 | pEC50 [3]: 6.00 to 7.00 | pEC50 (Daudi [4]): 6.00 to 7.00
